Source: patent US6376666B1 (Nauchno-Issledovatelsky Institut Farmakologii Rossiiskoi …, priority 1994, dated 2002)
Marks after values point to notes of the source that are not given here.

Tests used:
outbred male rats = experiment: conflict Vogel test (punished licking of water); assay type: in vivo; settings: M ± mx
Experimental: The study of anxiolytic activity of chosen compounds was carried out in the experiments with outbred male rats weighing 180-200 g in standard conflict Vogel' procedure [Voronina T. A. et al., in: “Phenazepam”, Naukova Dumka, Kiev, 1982, p.89, 93, 146]. The main aim of the initial step of experiments was the training of rats to develop the feeling of thirst with following experience of water licking from bottle in the experimental chamber. The animals were deprived of water for 24 hours and were placed in the test chamber for 5-min adaptation period during which they had free access to the drinking bottle. After another 24 h deprivation period the rats were placed again in the test chamber and were allowed to drink water for 5 sec. Immediately afterwards drinking attempts were punished by electric shock (0,5 mA). Under this collision of drinking and protective reflexes the extremal situation was developed. In this situation the anxiety of punishment prevented the licking process. The number of shocks received throughout a 5-min experimental session was recorded.

[1] = acute toxicity after per os administration; settings: mouse, in vivo, oral; outbred mice, per os, 1% starch suspension, Litchfield-Wilcocson
Experimental: (§1) The acute toxicity was measured in outbred mice after per os administration of used drugs in the 1% starch suspension. The lethal doses were calculated according to Litchfield-Wilcocson' method. […].

outbred mice = experiment: acute toxicity after per os administration; settings: mouse, in vivo
Experimental: as §1

male outbred mice = experiment: potentiation of sleep induced by sodium thiopental; assay type: in vivo
Experimental: The possible hypnotic effects of choosen drugs was estimated according to method of potentiation of sleep induced by sodium thiopental. The male outbred mice weighing 20-25 g were injected i.p. with sodium thiopental at dose of 70 mg/kg. Two parameters were estimated: latent time of sleeping and duration of sleep. The used compounds were administered i.p. 30 min prior injection of sodium thiopental.

outbred male mice = experiment: rotarod test (myorelaxant activity); assay type: in vivo; settings: for time of remaining on the rotarod: cut-off 120 sec
Experimental: The myorelaxant activity of choosen compounds were studied in the outbred male mice weighing 22-25 g in rotarod test [Voronina T. A. et al., in: “Phenazepam”, Naukova Dumka, Kiev, 1982, p.145]. The animals were placed on the horizontal rotarod (D=2 cm) calibrated for a fixed speed of 4 rpm. According to the rotarod experimental protocol, normal motor coordination was defined by the ability of the animals to remain on the rotarod for an arbitrarily selected time of 120 sec.

in vivo = settings: rat, iv
[2] = system: ischemized myocardium of cats; experiment: ST-segment elevation during 5 min occlusions of coronary artery (acute coronary deficiency); assay type: in vivo; settings: for change in mean elevation of ST-segment vs control occlusion: cats, 1.0 mg/kg i.v.
Experimental: These experiments were conducted in cats weighing 2,5-4,0 kg under anasthesia by i.v. injection of nembutal (40 mg/kg) in open chest conditions. Epicardium electrogram in 3-4 leads was registered in “Mingograph-81”. The value of mean elevation of ST-segment during 5 min occlusions of anterior left descending coronary artery with 15 min reperfusions between them was the main index of intensity of reversible ischemized damage of myocardium.
The statistical calculation was carried out with non-parametric Wilcocson method for associated variants.

[3] = system: ischemized myocardium of cats; experiment: contractile and pump functions and ATP level of ischemized myocardium (20-40 min occlusion, reperfusion); assay type: in vivo
Experimental: The effects of this compound on contractile and pump functions of ischemized myocardium were studied in cats weighing 3,0-4,5 kg under anesthesia with nembutal (40 mg/kg). […] The phase curve of blood flow in ascending part of the aortic arch was recorded with electromagnetic blood flowmeter MFV-1200 (“Nihon-Kohden”, Japan). Hemodynamics, heart activity values and the number of arrhythmia were calculated. In the experiments with 40 min ischemia immediately after 60 min the intact and ischemized zones of left ventricle were dissected and freezed in liquid nitrogen. ATP level was measured using hexokinase method in these zones. 4 series of experiments (2-control and 2-basic) were conducted in 12 cats in each. For statistical calculation the t-Student and Fisher's precision test were used.

[4] = 0.01 mg/kg i.p. 30 min before thiopental 70 mg/kg i.p.
[5] = 0.1 mg/kg i.p. 30 min before thiopental 70 mg/kg i.p.
[6] = 1.0 mg/kg i.p. 30 min before thiopental 70 mg/kg i.p.
[7] = 5.0 mg/kg i.p. 30 min before thiopental 70 mg/kg i.p.
[8] = 10.0 mg/kg i.p. 30 min before thiopental 70 mg/kg i.p.
[9] = 40 min occlusion, 60 min reperfusion

For `CCOc1ccc2nc(SCCN3CCOCC3)[nH]c2c1` [XII, 2-[2-(Morpholino)ethylthio]-5-ethoxybenzimidazole], the “number of punished lickings (shocks received in 5-min session)” value (“number of punished lickings” for short) (outbred male rats; 1.0 mg/kg i.p.) was 15.3 ± 3.4, the “number of punished lickings” value (outbred male rats; 5.0 mg/kg i.p.) was 19.0 ± 2.5 and the “number of punished lickings” value (outbred male rats; 10.0 mg/kg i.p.) was 15.4 ± 2.5. The “number of punished lickings” value (outbred male rats; 20.0 mg/kg i.p.) was 28.0 ± 5.8, the LD50 [1] was 1160 mg/kg and the “toxicity, conclusion in words” value (outbred mice) was “not toxic”. For the same molecule, the “duration of sleep after sodium thiopental” value (from here on “duration of sleep”) (male outbred mice; [4]) was 76.4 ± 16.7 min, the “latent time of sleep after sodium thiopental” value (“latent time of sleep” below) (male outbred mice; [4]) was 1.86 ± 0.27 s and the “duration of sleep” value (male outbred mice; [5]) was 54.5 ± 9.9 min. For the same molecule, the “latent time of sleep” value (male outbred mice; [5]) was 1.94 ± 0.18 s, the “duration of sleep” value (male outbred mice; [6]) was 67.9 ± 4.3 min and the “latent time of sleep” value (male outbred mice; [6]) was 2.78 ± 0.17 s. For the same molecule, the “duration of sleep” value (male outbred mice; [7]) was 71.7 ± 14.6 min, the “latent time of sleep” value (male outbred mice; [7]) was 2.21 ± 0.17 s and the “duration of sleep” value (male outbred mice; [8]) was 92.4 ± 9.9 min. For the same molecule, the “latent time of sleep” value (male outbred mice; [8]) was 2.28 ± 0.24 s, the “time of remaining on the rotarod” value (outbred male mice; 0.01 mg/kg) was 120.0 + 0 sec and the “time of remaining on the rotarod” value (outbred male mice; 0.1 mg/kg) was 120.0 + 0 sec. The “time of remaining on the rotarod” value (outbred male mice; 1.0 mg/kg) was 120.0 + 0 sec, the “time of remaining on the rotarod” value (outbred male mice; 5.0 mg/kg) was 120.0 + 0 sec and the “time of remaining on the rotarod” value (outbred male mice; 10.0 mg/kg) was 120.0 + 0 sec. The “time of remaining on the rotarod” value (outbred male mice; 20.0 mg/kg) was 118.8 ± 1.6 s, the “time of remaining on the rotarod” value (outbred male mice; 50.0 mg/kg) was 111.3 ± 7.5 s and the “effect on motor coordination in rotarod test, in words” value (outbred male mice; dose range 0,01 mg/kg-50 mg/kg) was “no effect on the motor coordination”.

For `CCOc1ccc2nc(SCCN(CC)CC)[nH]c2c1` [Compound IX, 2-[2-(Diethylamino)ethylthio]-5-ethoxybenz-imidazole], the LD50 (in vivo) was 31.5 mg/kg, the “change in mean elevation of ST-segment vs control occlusion” value (from here on “change in mean elevation of ST-segment”) ([2]; occlusion 20 min after injection, 15 sec of reperfusion) was −0.8* mv and the “change in mean elevation of ST-segment” value ([2]; occlusion 20 min after injection, 30 sec of occlusion) was −0.7 mv. For the same molecule, the “change in mean elevation of ST-segment” value ([2]; occlusion 20 min after injection, 2 min of occlusion) was −1.4* mv, the “change in mean elevation of ST-segment” value ([2]; occlusion 20 min after injection, 3 min of occlusion) was −1.4* mv and the “change in mean elevation of ST-segment” value ([2]; occlusion 20 min after injection, 5 min of occlusion) was −1.2 mv. For the same molecule, the “change in mean elevation of ST-segment” value ([2]; occlusion 40 min after injection, 15 sec of reperfusion) was −1.0* mv, the “change in mean elevation of ST-segment” value ([2]; occlusion 40 min after injection, 30 sec of occlusion) was −0.5 mv and the “change in mean elevation of ST-segment” value ([2]; occlusion 40 min after injection, 1 min of occlusion) was −0.5* mv. The “change in mean elevation of ST-segment” value ([2]; occlusion 40 min after injection, 2 min of occlusion) was −1.0* mv, the “change in mean elevation of ST-segment” value ([2]; occlusion 40 min after injection, 3 min of occlusion) was −1.2 mv and the “change in mean elevation of ST-segment” value ([2]; occlusion 40 min after injection, 5 min of occlusion) was −1.0 mv. For the same molecule, the “change in mean elevation of ST-segment” value ([2]; occlusion immediately after injection, 15 sec of reperfusion) was −1.2* mv, the “change in mean elevation of ST-segment” value ([2]; occlusion immediately after injection, 30 sec of occlusion) was −1.8** mv and the “change in mean elevation of ST-segment” value ([2]; occlusion immediately after injection, 1 min of occlusion) was −1.9** mv. For the same molecule, the “change in mean elevation of ST-segment” value ([2]; occlusion immediately after injection, 2 min of occlusion) was −2.4** mv, the “change in mean elevation of ST-segment” value ([2]; occlusion immediately after injection, 3 min of occlusion) was −1.9** mv and the “change in mean elevation of ST-segment” value ([2]; occlusion immediately after injection, 5 min of occlusion) was −2.2** mv. The “duration of anti-ischemic effect after injection” value ([2]; cats, 1,0 mg/kg i.v.) was 40 min, the “effect on mean elevation of ST-segment during 5 min occlusion, in words” value ([2]; cats, 1,0 mg/kg i.v.) was “decreased the mean elevation of ST-segment” and the “effect on number of arrhythmias during occlusion and reperfusion, in words” value ([3]; 20 min occlusion, 30 min reperfusion) was “decreased the number of arrhythmias”. For the same molecule, the “effect on cardiac output, in words” value ([3]; 20 min occlusion, 30 min reperfusion, 1,0 mg/kg bolus +50 mcg/kg/min i.v.) was “prevented the decrease in cardiac output”, the “effect on inhibition of contractile function of myocardium induced by ischemic damage, in words” value ([3]; 20 min occlusion, 30 min reperfusion, 1,0 mg/kg bolus +50 mcg/kg/min i.v. during 30 min) was “significantly prevents the inhibition of contractile function of myocardium” and the “effect on ATP level in intact zones of myocardium, in words” value [3, 9] was “did not change it in the intact zones”. The “effect on cardiac output, in words” value [3, 9] was “no effect on changes in cardiac output”, the “effect on stroke volume, in words” value [3, 9] was “prevented the decrease in stroke volume” and the “effect on ATP level in ischemized myocardium, in words” value ([3]; 40 min occlusion, 60 min reperfusion, hexokinase method) was “increased the ATP level in the ischemized myocardium”. For the same molecule, the “effect on number of arrhythmias induced by occlusion and reperfusion, in words” value ([3]; critical and mild ischemia) was “did not reduced the number of arrhythmias” and the “effect on inhibition of contractile function of heart, in words” value ([3]; critical ischemia: 40 min occlusion, 60 min reperfusion) was “prevented the inhibition of contractile function of heart”.
